Data published in patent US10294212B2 (CURADEV PHARMA PRIVATE LTD., priority 2013, dated 2019).

Tests used:
[1] = target: IDO1 in HeLa cells (Homo sapiens (Human), UniProt P14902); assay: HeLa cell based IDO1 assay (IFNγ-induced, KYN in supernatant)
Description: HeLa cells were obtained from ATCC and maintained in DMEM supplemented with sodium bicarbonate (2.1 g/L), HEPES (4.1 g/L), L-glutamine (2 mM), non-essential amino acid (84 mg/L) and fetal bovine serum (10% FBS) and maintained at 95% humidity and 5% CO2 in a 37° C. incubator. Unless otherwise stated, all materials were procured from Sigma. Upon incubation with gamma-interferon (IFNγ ), HeLa cells express IDO1, which catalyzes the formation of N-formyl kynurenine from tryptophan present in growth medium. The assay was performed as follows:
Cells were plated in medium (300 μL) at a density of 0.1 million per well of a 48 well plate and hIDO1 was induced by overnight treatment with IFNγ (50 ng/mL) (Peprotech, USA). The following day, cells were washed to remove IFNγ and were incubated with specific concentrations of test compounds (typically 10 μM to 1 nM, final volume 300 μL) in Hanks Balanced Salt Solution (HBSS) containing 80 μM L-tryptophan. Following incubation, supernatant (150 μL) was transferred to a 96 well plate into which 30%TCA (304) was added and the contents further incubated at 65° C. for 15 min to fully convert N-formylkynurenine to kynurenine. The reaction mixture was then centrifuged to remove sediments and the KYN in the supernatant was estimated by UV-visible absorption spectroscopy at 360 nm using a Waters HPLC system fitted with a C-18 column. (Xiangdong Liu et al. Blood 2010, Vol-117, 3520-30; Sono described above).
Percent inhibition at each concentration of test compounds was determined by estimating the decrease in KYN with reference to the reaction control with 1% DMSO vehicle. Data were analyzed using nonlinear regression to generate IC50 values using Graph Pad Prism® 5.

[2] = target: Human indoleamine 2,3-dioxygenase1 (hIDO1) (Homo sapiens (Human), UniProt P14902); assay: In-vitro IDO1 enzyme assay (conversion of L-tryptophan to KYN); format: biochemical; settings: read-out: IC50 (IDO1) Enz
Outline: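 Kynurenine formation quantified by HPLC absorbance at 360 nm or LC/MS/MS after TCA quench and 15 min at 65 °C. Reaction: 10 nM N-His hIDO1, 30 μM tryptophan, ascorbate/methylene blue/catalase, pH 6.5 phosphate buffer, 37 °C for 30 min. Inhibition relative to 1% DMSO vehicle, fitted to IC50.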

[3] = target: Human TDO (hTDO)-transfected CHO-K1 cells (Homo sapiens (Human), UniProt P48775); assay: CHO-K1 cell based TDO assay; settings: hTDO cellular assay
Outline: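 Kynurenine output was read by LC/MS/MS after TCA precipitation and 15 min at 65° C. Before that, CHO-K1 cells stably carrying human TDO2 were incubated 2 h with compounds (typically 31 μM to 10 nM) and 80 μM L-tryptophan in HBSS. Decrease versus DMSO vehicle gave percent inhibition, then IC50.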

Sequence of Human TDO (hTDO)-transfected CHO-K1 cells (P48775 whole entry): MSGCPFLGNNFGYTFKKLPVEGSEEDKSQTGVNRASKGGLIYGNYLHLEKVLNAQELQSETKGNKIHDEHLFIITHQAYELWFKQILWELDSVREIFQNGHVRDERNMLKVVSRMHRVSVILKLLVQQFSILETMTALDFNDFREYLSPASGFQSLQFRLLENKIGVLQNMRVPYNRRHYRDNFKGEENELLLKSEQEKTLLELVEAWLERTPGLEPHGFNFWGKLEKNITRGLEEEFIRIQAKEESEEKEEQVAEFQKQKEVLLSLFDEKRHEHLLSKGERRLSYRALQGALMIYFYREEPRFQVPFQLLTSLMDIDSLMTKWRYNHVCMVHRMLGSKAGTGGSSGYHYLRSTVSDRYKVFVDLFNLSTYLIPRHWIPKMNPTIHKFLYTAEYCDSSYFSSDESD
Sequence of Human indoleamine 2,3-dioxygenase1 (hIDO1) (P14902 whole entry): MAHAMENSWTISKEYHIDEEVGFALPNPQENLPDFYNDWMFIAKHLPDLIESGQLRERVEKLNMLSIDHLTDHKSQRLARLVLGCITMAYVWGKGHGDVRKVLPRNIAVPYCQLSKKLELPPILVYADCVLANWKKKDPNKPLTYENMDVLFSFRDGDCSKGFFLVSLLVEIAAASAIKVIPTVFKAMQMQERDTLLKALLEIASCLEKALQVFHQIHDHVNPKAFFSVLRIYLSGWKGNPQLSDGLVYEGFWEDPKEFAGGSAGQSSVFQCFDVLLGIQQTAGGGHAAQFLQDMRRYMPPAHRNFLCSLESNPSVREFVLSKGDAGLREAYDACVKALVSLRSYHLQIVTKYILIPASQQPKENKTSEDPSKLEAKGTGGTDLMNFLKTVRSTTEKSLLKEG
Sequence of IDO1 in HeLa cells (P14902 whole entry): as above

Compound | IC50 [1] | IC50 [2] | IC50 [3]
Nc1oc2cnccc2c1Nc1cccc(CC2CC2)c1 [Compound 84, N^3-(3-(Cyclopropylmethyl)phenyl)furo[2,3-c]pyridine-2,3-diamine] | 200 to 1000 nM | > 1000 nM | > 2000 nM
Cc1cc(Cl)cc(Nc2c(N)oc3cnccc23)c1 [Compound 87, N^3-(3-Chloro-5-methylphenyl)furo[2,3-c]pyridine-2,3-diamine] | 200 to 1000 nM | 200 to 1000 nM | 500 to 2000 nM
C#Cc1cccc(Nc2c(N)oc3c(C)nccc23)c1 [Compound 93, N^3-(3-ethynylphenyl)-7-methylfuro[2,3-c]pyridine-2,3-diamine] | < 200 nM | 200 to 1000 nM | 500 to 2000 nM
COc1ccccc1-c1nccc2c(Nc3ccc(F)c(Cl)c3)c(N)oc12 [Compound 98, N^3-(3-Chloro-4-fluorophenyl)-7-(2-methoxyphenyl)furo[2,3-c]pyridine-2,3-diamine] | < 200 nM | < 200 nM | 500 to 2000 nM
N#Cc1cccc(Nc2c(N)oc3cnccc23)c1 [Compound 99, 3-((2-Aminofuro[2,3-c]pyridin-3-yl)amino)benzonitrile] | < 200 nM | > 1000 nM | > 2000 nM
Nc1oc2c(-c3cccc(Cl)c3)nccc2c1Nc1ccc(F)c(Cl)c1 [Compound 100, N^3-(3-Chloro-4-fluorophenyl)-7-(3-chlorophenyl)furo[2,3-c]pyridine-2,3-diamine] | < 200 nM | < 200 nM | > 2000 nM
CCCCOc1cc2c(Nc3ccc(F)c(Cl)c3)c(N)oc2c(-c2ccccc2)n1 [Compound 102, 5-Butoxy-N^3-(3-chloro-4-fluorophenyl)-7-phenylfuro[2,3-c]pyridine-2,3-diamine] | > 1000 nM | > 1000 nM | > 2000 nM
CCOc1cc2c(Nc3ccc(F)c(Cl)c3)c(N)oc2c(-c2ccccc2)n1 [Compound 105, N^3-(3-Chloro-4-fluorophenyl)-5-ethoxy-7-phenylfuro[2,3-c]pyridine-2,3-diamine] | > 1000 nM | 200 to 1000 nM | > 2000 nM

Further lines, results first:

IC50 [1] | IC50 [2] | IC50 [3] | Compound
< 200 nM | < 200 nM | 500 to 2000 nM | CC(C)c1nccc2c(Nc3ccc(F)c(Cl)c3)c(N)oc12 [Compound 83, N^3-(3-Chloro-4-fluorophenyl)-7-isopropylfuro[2,3-c]pyridine-2,3-diamine]
< 200 nM | < 200 nM | 500 to 2000 nM | COc1cc2c(Nc3ccc(F)c(Cl)c3)c(N)oc2c(C)n1 [Compound 85, N^3-(3-Chloro-4-fluoro-phenyl)-5-methoxy-7-methyl-furo[2,3-c]pyridine-2,3-diamine]
< 200 nM | < 200 nM | 500 to 2000 nM | COc1cccc(-c2nccc3c(Nc4ccc(F)c(Cl)c4)c(N)oc23)c1 [Compound 90, N^3-(3-Chloro-4-fluorophenyl)-7-(3-methoxyphenyl)furo[2,3-c]pyridine-2,3-diamine]
< 200 nM | < 200 nM | < 500 nM | Nc1oc2c(-c3cccnc3)nccc2c1Nc1ccc(F)c(Cl)c1 [Compound 94, N^3-(3-chloro-4-fluorophenyl)-7-(pyridin-3-yl)furo[2,3-c]pyridine-2,3-diamine]
< 200 nM | < 200 nM | 500 to 2000 nM | C#Cc1cccc(Nc2c(N)oc3c(CC)nccc23)c1 [Compound 96, 7-Ethyl-N^3-(3-ethynylphenyl)furo[2,3-c]pyridine-2,3-diamine]
< 200 nM | < 200 nM | < 500 nM | N#Cc1nccc2c(Nc3ccc(F)c(Cl)c3)c(N)oc12 [Compound 103, 2-Amino-3-((3-chloro-4-fluorophenyl)amino)furo[2,3-c]pyridine-7-carbonitrile]
< 200 nM | < 200 nM | 500 to 2000 nM | Nc1oc2c(C3CCCCC3)nccc2c1Nc1ccc(F)c(Cl)c1 [Compound 108, N^3-(3-Chloro-4-fluorophenyl)-7-cyclohexylfuro[2,3-c]pyridine-2,3-diamine]
